Laboratory results taken from US7897340B2, “Use of tumor susceptibilty gene 101 (TSG 101) as a prognostic and diagnostic marker” (The Board of Regents of the University of Texas System, priority 2006, dated 2011).

Tests used:
RAS-GTP = details: T29H cells, data not shown
TSG101 mRNA = TSG101 mRNA levels by semi-quantitative PCR in T29 and T29H cells; assay type: cell-based, human; details: FTI-277 10 μM 24 hours
Procedure: Total RNA was isolated from cells using Trizol reagent (Invitrogen), and concentration was determined by absorbance at 260 nm. Real-Time PCR analysis was carried out using fluorescent TSG101 primers on an Applied Biosystems Prism 7000 Sequence Detection System. RT-PCR was carried out for TSG101 and HIF-1α using 1 μg of isolated total RNA under the following parameters: 94° C. 1 min, 57° C. 1 min and 72° C. 1.5 min, 35 cycles. Primers used for RT-PCR were TSG10 forward [NT] ID NO: 1), reverse [NT] ID NO: 2), CITED2 forward [NT] ID NO: 3), reverse [NT] ID NO: 4), HIF-1a ? forward [NT] ID NO: 5), reverse [NT] ID NO: 6). […] This up-regulation was further confirmed by immunoblotting analysis of equal amount of independent total protein lysates from pooled T29 and […] cells using an antibody specific to TSG101 (FIG. 1C). To check if the apparent increase in TSG101 protein was due to the transcriptional regulation of the TSG101 gene, the levels of TSG101 mRNA in T29 and […] cells were examined by semiquantitive (FIG. 1D) and real-time PCRs (FIG. 1E). […] Furthermore, the levels of TSG101 mRNA were not affected by FTI-277, a farnesyl transferase inhibitor that blocks the activation of RAS (FIG. 1D).

TSG101 = TSG101 protein levels by immunoblotting in T29H cells; assay type: cell-based, human; details: inhibitor pretreatment 24 hrs (FTI-277 10 μM, U0126 20 μM, LY294002 10 μM)
Text: Antigen-antibody complexes were detected by enhanced chemiluminescence (Pierce).

p14ARF = details: T29H cells
Procedure: Protein concentrations of cell lysates were assayed with the Bio-Rad protein assay reagent. Equal amounts of protein were loaded onto 12% SDS polyacrylamide mini-gels (Bio-Rad) or 10% Tricine-SDS gels and transferred to PVDF membranes. PVDF blots and the remaining polyacrylamide gels were stained with Ponceau S and Coomassie Blue, respectively, to ensure equal loading and even transfer of the samples. After being blocked overnight in 5% milk in TBS-Tween, blots were incubated with corresponding primary antibodies for 1.5 hrs, followed by HRP-conjugated secondary antibody (1:4000, Bio-Rad) for 45 min. Antigen-antibody complexes were detected by enhanced chemiluminescence (Pierce).

Compound | RAS-GTP levels (RAS-GTP) | levels of TSG101 mRNA (TSG101 mRNA) | TSG101 protein levels (TSG101) | cellular level of p14ARF (p14ARF)
COC(=O)[C@H](CCSC)NC(=O)c1ccc(NC[C@@H](N)CS)cc1-c1ccccc1 [FTI-277] | significantly inhibited | not affected | significant decrease | –
N#CC(=C(/N)Sc1ccccc1N)/C(C#N)=C(\N)Sc1ccccc1N [U0126] | – | – | significantly decreased | suppressed
